Data reported in article PMC4999502, “A rheostat mechanism governs the bifurcation of carbon flux in mycobacteria” (Nature Communications, 2016).

Tests used:
[1] = biological target: T1, M. smegmatis ICD (MsmICD) (Mycolicibacterium smegmatis, UniProt A0QSZ3); assay: isothermal titration calorimetry; assay type: binding; conditions: pH 7.5, 25 °C, 10 mM Tris, 10 mM EDTA, 2.5 mM MgCl2; putative allosteric activator; 1:1 single-site fit
T1 construct: gene MSMEG_1654; full ORF, 743 AA; pET-28a(+), C-terminal TEV site and 6-His tag, tag removed by TEV; E. coli BL21(DE3); text says mycobacterial ICD2 forms dimers in solution
Text: isothermal titration calorimetry on M. smegmatis ICD (MsmICD)

[2] = biological target: T1, M. smegmatis ICD (MsmICD); assay: X-ray crystal structure, […] Å; assay type: binding; conditions: Mn2+ bound; crystals pre-incubated with glyoxylate, MnCl2, isocitrate and NADP+; pH 7.5

| Structure (SMILES) | K (M^-1) [1] | X-ray crystal structure, 2.8 Å [2] |
| --- | --- | --- |
| O=CC(=O)O [glyoxylate] | 1.10e^6±4.21e^5 |  |
| O=C(O)C[C@H](C(=O)O)[C@@H](O)C(=O)O (racemic) [isocitrate] |  | We determined the structure of MsmICD bound to isocitrate and manganese |
